Source: article PMC6337497 (International Journal of Molecular Sciences, 2018)
“Also recorded” adds a separate entry of the source.

Tests used:
PC3 cells [1] = assay: MTT cell viability assay, PC3; type: cell-based, Human; settings: for GI50: 48 h treatment, MTT
Method: (§1) Human prostate cancer PC3 cells (CRL 1435, ATCC, Manassas, VA, USA) were grown in Ham’s F12 nutrient medium, human prostate cancer DU145 cells (HTB-81, ATCC, Manassas, VA, USA) in RPMI 1640 medium and human colorectal carcinoma HCT116 cells (CCL-247, ATCC, Manassas, VA, USA) in IMDM medium. All media (Biowest, Nuaillé, France) were supplemented with 10% Foetal Bovine Serum (Gibco-Thermo Fisher Scientific, Waltham, MA, USA), L-glutamine, penicillin, and streptomycin (Euroclone, Milan, Italy), and grown at 37 °C in a humidified 5% CO2 atmosphere.
(§2) DMSO was used as control.
(§3) The inhibition of cell proliferation was measured by colorimetric MTT assay and the concentration at which cellular growth is inhibited by 50% (GI50) was determined. Briefly, cells were seeded into 96-well plates at a density of 2000 cells/well. The following day, cells were treated with the indicated compounds and analyzed for cell viability after 48 h. 5 mg/mL thiazolyl blue tetrazolium bromide (Sigma-Aldrich, St. Louis, MO, USA) was added to each well at a final concentration of 0.5 mg/mL and the plates were incubated at 37 °C for 2 h. Medium containing unconverted MTT was removed and 100 µL MTT solvent (4 mM HCl, 0.1% NP-40 in isopropyl alcohol) was added to each well. The plate was gently rotated on an orbital shaker in the dark for 15 min, before the measurements of absorbance at 570 nm. The viability of untreated cells was arbitrarily set at 100%.

[2] = pH-metric titration, acid-base behavior (UV-vis, HypSpec); type: physicochemical; settings: for pKa: aqueous solution diluted from a methanol mother solution, 25.0 °C, ionic strength 0.1 M NaNO3, read-out: pKa (keto-enol moiety)
Method: pH-metric titrations were performed in order to assess K3F acidity and predict the most abundant species in physiological condition. […] Overall protonation constants (βHL) were calculated from spectrophotometric data and optimized by means of HypSpec software (Supplementary Table S1). K3F23, K3F24 and K3F33 behaved as weak monoprotic acids, with a pKa value close to 8–8.50 associated to the keto-enol moiety. As for the other two ligands, namely K3F21 and K3F31, the acid-base equilibria were more complex in view of the polyprotic nature of the compounds, and three logβLH values were calculated. Species distribution curves (Supplementary Figure S2) provided reliable prediction of neutral and charged forms as function of pH, and consequently helped to envisage cell penetration and distribution in physiological conditions. […] As for K3F21 and K3F31, they behaved as less weak acids, in fact at pH 7 58% of K3F21 and 65% of K3F31 were found in the mono-dissociated negatively charged form (H2L^−), these percentages increased up to 74% and 86% respectively at pH 7.4. […] This outcome could be attributed to the stabilizing effect of the intramolecular hydrogen bond between the methoxyl and hydroxyl groups on the aromatic ring in the indissociated form of K3F21, which shifts the equilibrium in favor of the neutral species (H3L).
UV-vis spectrophotometric measurements were performed using Jasco V-570 spectrophotometer at 25.0 ± 0.1 °C in the 200–600 nm spectral range employing 1 cm quartz cells. Owing to the poor water solubility of the compounds, a methanol mother solution (5 × 10^−3 M) was diluted in water in order to give 50 µM solutions used for pH-metric titrations. The pH value was varied by adding small amounts of concentrated NaOH or HCl, 25 points in the pH range 3–10. A constant ionic strength of 0.1 M (NaNO3) was maintained in all the experiments. Each titration was performed at least three times. The overall protonation constants (logβLH) were evaluated from spectrophotometric data using the software HypSpec.

PC3 cells [3] = assay: Cell cycle analysis (propidium iodide), PC3; type: cell-based, Human; settings: for effect on cell cycle distribution (in words): PC3, 48 h at GI50 dose
Method: (§4) Cells were harvested after 48 h drug treatments and DNA distribution analysis of cells stained with propidium iodide solution (propidium iodide 25 µg/mL, Na-Citrate 3.4 mM, NaCl 9.65 mM, NP-40 0.03%) was performed by an Epics cytofluorimeter (Beckman Coulter Srl, Milan, Italy).

DU145 cells [4] = assay: Cell cycle analysis (propidium iodide), DU145; type: cell-based, Human; settings: for effect on cell cycle distribution (in words): DU145, 48 h at GI50 dose
Method: as §4

DU145 cells [5] = assay: MTT cell viability assay, DU145; type: cell-based, Human; settings: for GI50: 48 h treatment, MTT
Method: as §1, §2, §3

[6] = Kinetic stability in physiological conditions (UV-vis); type: physicochemical; settings: after 24 h; PBS 0.01 M, NaCl 0.1M, pH = 7.4, 37 °C in darkness
Method: Figure 2 Stability and radical scavenging ability of K3F derivatives. (A) Residual % of K3F compounds vs. time (PBS 0.01 M, NaCl 0.1M, pH = 7.4, 37 °C in darkness). Residual % is calculated as At·100/A0, where At and A0 stand for absorbance at λmax at time t and time zero, respectively. (B) Percentage of inhibition of free DPPH radical ([DPPH^·] = 60 µM) in the presence of K3F compounds at increasing concentrations. Compounds concentration is expressed as molar ratio (compound/DPPH).
[…] 100 μM solutions of the ligands were prepared in 0.1 M Tris-HCl buffer (pH 7.4) with constant ionic strength (0.1 M NaNO3). Spectra were recorded every 30 min. All profiles were linearized by hyperbolic function (Equation (1)), which represents an empirical model that well describes drug decomposition or release. t/f% = at + b(1) where f% is the fraction of residual compound at time t (min) expressed as percentage referred to starting concentration at time zero.

DU145 cells [7] = assay: Cell migration (wound) assay, DU145; type: cell-based, Human; settings: DU145, GI50 dose, 16 h
Method: (§5) 4 × 10^5 prostate cancer cells were plated in a 12-well plate. Approximately 24 h later, when the cells were 100% confluent, the monolayer was scratched using a 200 µL pipette tip. […] Three biological replicates were performed. Three random pictures were taken for each treated well per experiment and the areas of the wounds measured using ImageJ software. The percentage of wound recovery was then calculated using the formula: (final area-initial area)/initial area × 100%.

DU145 cells [8] = assay: RT-qPCR gene transcription, DU145; type: cell-based, Human; settings: DU145, 48 h at GI50 dose
Method: (§6) Data are presented as relative transcript levels, normalized with RPL21 housekeeping gene, with DMSO levels arbitrarily set at 1.
(§7) RNA was extracted from cells using RNeasy kit (Qiagen, Venlo, The Netherlands) and reversed transcribed with a Moloney murine leukemia virus reverse transcriptase (Promega, Madison, WI, USA). Quantitative real-time PCRs were performed using SsoAdvanced Universal SYBR Green Supermix (Bio-Rad, Hercules, CA, USA) on a Bio-Rad CFX Connect™ real-time PCR detection system. Primer sequences are available upon request. The housekeeping gene Rpl21 was used as a loading control. The relative fold change enrichments of real-time PCR samples were calculated with the formula 2^−(ΔΔCt), where −(ΔΔCt) = −[(Ct target − Ct Rpl21)treated − (Ct target − Ct Rpl21)DMSO].

PC3 cells [9] = assay: Cell migration (wound) assay, PC3; type: cell-based, Human; settings: PC3, GI50 dose, 40 h
Method: as §5

DU145 cells [10] = assay: Western blot of total cellular lysates, DU145; type: cell-based, Human; settings: DU145, 48 h at GI50 dose
Method: (§8) Actin was used as loading control. Whole-cell protein extracts were prepared by resuspending cells into 1X SDS sample buffer (25 mM Tris-HCl pH 6.8, 1.5 mM EDTA, 20% glycerol, 2% SDS, 5% β-mercaptoethanol, 0.0025% Bromophenol blue). Equivalent amounts of cellular extracts were resolved by SDS-PAGE, electrotransferred to PVDF membrane (GE Healthcare Italia, Milan, Italy) and immunoblotted with the following primary antibodies: anti-phospo-H2AX (sc-101696), anti-p53 (DO1) (sc-126), anti-actin ([MUT]) (sc-1616) and anti-PARP (sc-8007) antibody from Santa Cruz Biotecnology, Inc, Dallas, TX, USA.; phospho-specific AKT antibody S473 (#9018) and T308 (#9275), Akt antibody (#9272 and #2967), phospho-specific ERK1/2 antibody T202/Y204 (#4370), ERK1/2 antibody (#4669), phospho-specific p38 MAPK antibody T180/Y182 (#9211), and p38 antibody (#9212) were purchased from Cell Signaling Technologies, Danvers, MA, USA. Membranes were blotted and scanned with Bio-Rad ChemiDocTM Touch Imaging System (Bio-Rad, Hercules, CA, USA), using chemiluminescent detection reagents from Cyanagen, Bologna, Italy (Westar ηC and Supernova HRP substrates for Western blotting).

PC3 cells [11] = assay: RT-qPCR gene transcription, PC3; type: cell-based, Human; settings: PC3, 48 h at GI50 dose
Method: as §6, §7

PC3 cells [12] = assay: Western blot of total cellular lysates, PC3; type: cell-based, Human; settings: PC3, 48 h at GI50 dose
Method: as §8

DU145 cells [13] = assay: K3F21/docetaxel co-administration, MTT and CompuSyn, DU145; type: cell-based, Human; settings: DU145, DTX 20nM co-administered with K3F21, 48 h
Method: as §3
The ability of K3F21 and docetaxel to act synergistically with regard to growth inhibition was determined using CompuSyn software (ComboSyn, Inc., freely available at http://www.combosyn.com). Combination index (CI) and drug reduction index (DRI) were calculated for each concentration of drugs mixture, as indicated in the text. CI <1, =1 or >1 indicates synergism, additive effect, or antagonism, respectively. DRI >1 or <1 indicates favorable or not favorable dose-reduction.

[14] = Antioxidant activity (DPPH assay); settings: [DPPH] = 60 µM, methanol, 120 min; read-out: IC50, DPPH radical scavenging
Method: The antioxidant activity of the compounds was evaluated in terms of hydrogen donating or radical scavenging ability, using the stable DPPH radical (1,1-diphenyl-2-picrylhydrazyl radical). A variable amount (15, 30, 45, 75, 105, and 150 µL) of a methanol solution (1.2 mM) of each compound was placed in a cuvette, and 3 mL of a 60 µM methanol solution of DPPH was added. Absorbance measurements were initiated immediately. The decrease in absorbance at 517 nm was monitored every minute up to 5′, then every 5′ up to 30′ and every 30′ until reaction reaches completion and absorbance stabilizes attaining a plateau after 120′. Methanol was used to zero the spectrophotometer. The absorbance of the DPPH radical without K3F compound, i.e., the control, was measured daily, and concentration was calculated applying Equation (2) (2) [DPPH^·]=A−1.006/10970
The percentage of inhibition (%In) of the DPPH radical by each sample was calculated according to the formula (3) %In=A0−At/A0×100 where A0 represents the absorbance of the control (DPPH radical) at time 0, while At refers to the absorbance of the mixture DPPH/antioxidant at time t (120 min). Values of absorbance were corrected taking into account volume dilution and all determinations were performed in triplicate.

metastatic CRPC = system: metastatic CRPC; design: method as in PMID 12644816, PMID 11448901; settings: Phase II clinical trial; cited from earlier work

Compound: 2-((4Z,6E)-4-cinnamoyl-5-hydroxy-7-phenylhepta-4,6-dien-1-yl)isoindoline-1,3-dione [K3F33]
- GI50 (PC3 cells [1]): 21.8 µM
- prevailing species ([2]; pH 7): neutral one (HL)
- effect on cell cycle distribution (in words) (PC3 cells [3]): doubled the percentage of G2/M cells; also recorded: significantly increases SubG1 events
- effect on cell cycle distribution (in words) (DU145 cells [4]): ability to arrest cell cycle progression
- GI50 (DU145 cells [5]): 23.3 µM
- residual percentage [6]: ~60%

Compound: COc1cc(C=CC(=O)CC(=O)C=Cc2ccc(O)c(OC)c2)ccc1O [Curcumin, 1,7-bis [4-hydroxy-3-methoxyphenyl]-1,6-heptadiene-3,5-Dione, reference compound]
- GI50 (PC3 cells [1]; Homo sapiens, PC-3, 48 h): 21 µM
- PC3 % CELLS G2/M (PC3 cells [3]; 48 h at GI50 concentration): 37%
- effect on cell cycle distribution (in words) (PC3 cells [3]): significantly increases SubG1 events
- DU145 % CELLS SubG1 (DU145 cells [4]; 48 h at GI50 concentration): 5%
- effect on cell cycle distribution (in words) (DU145 cells [4]): mainly acts as a cytotoxic drug
- GI50 (DU145 cells [5]; Homo sapiens, DU-145): 17.3 µM
- cell migration (wound recovery) (DU145 cells [7]): inhibitory effects on the migratory capacity
- Noxa transcription (DU145 cells [8]): induced
- cell migration (wound recovery) (PC3 cells [9]): inhibitory effects on the migratory capacity
- ERK1/2 phosphorylation (DU145 cells [10]): increased
- phospho-p38 expression (DU145 cells [10]): no changes were observed
- γH2AX expression (marker of DNA damage) (DU145 cells [10]): increased γH2AX in PC3 only
- Noxa transcription (PC3 cells [11]): induced
- transcription of CDK inhibitors p21 and p27 (PC3 cells [11]): increased
- ERK1/2 phosphorylation (PC3 cells [12]): increased
- phosphorylation of AKT in Ser473 and Thr308 (PC3 cells [12]): inhibited
- γH2AX expression (marker of DNA damage) (PC3 cells [12]): increased

Compound: CC(=O)O[C@@]12CO[C@@H]1C[C@H](O)[C@@]1(C)C(=O)[C@H](O)C3=C(C)[C@@H](OC(=O)[C@H](O)[C@@H](NC(=O)OC(C)(C)C)c4ccccc4)C[C@@](O)([C@@H](OC(=O)c4ccccc4)[C@H]21)C3(C)C [Docetaxel, reference compound]
- IC50 (PC3 cells [1]; Homo sapiens, PC-3, PC3, MTT assay): 0.03 µM
- effect on cell cycle distribution (in words) (PC3 cells [3]): high cytotoxic effect associated to a robust increase in SubG1 events
- effect on cell cycle distribution (in words) (DU145 cells [4]): high cytotoxic effect associated to a robust increase in SubG1 events
- IC50 (DU145 cells [5]; Homo sapiens, DU-145, DU145, MTT assay): 0.017 µM
- DTX drug reduction index (DRI) (DU145 cells [13]): 2.9

Compound: COc1cccc(/C=C/C(=O)C(CCCN2C(=O)c3ccccc3C2=O)C(=O)/C=C/c2cccc(OC)c2)c1 [K3F23]
- GI50 (PC3 cells [1]; Homo sapiens, PC-3, 48 h): 12.4 µM
- pKa [2]: 8 to 8.5
- prevailing species ([2]; pH 7): neutral one (HL)
- effect on cell cycle distribution (in words) (PC3 cells [3]): doubled the percentage of G2/M cells
- effect on cell cycle distribution (in words) (DU145 cells [4]): both arrested the G2/M progression and induced cell death
- GI50 (DU145 cells [5]; Homo sapiens, DU-145): 12.5 µM

Compound: COc1cc(/C=C/C(=O)C(CCCN2C(=O)c3ccccc3C2=O)C(=O)/C=C/c2ccc(OC(C)=O)c(OC)c2)ccc1OC(C)=O [K3F24]
- GI50 (PC3 cells [1]; Homo sapiens, PC-3, 48 h): 16.7 µM
- pKa [2]: 8 to 8.5
- prevailing species ([2]; pH 7): neutral one (HL)
- effect on cell cycle distribution (in words) (PC3 cells [3]): doubled the percentage of G2/M cells
- effect on cell cycle distribution (in words) (DU145 cells [4]): ability to arrest cell cycle progression
- GI50 (DU145 cells [5]; Homo sapiens, DU-145): 13.2 µM

Compound: O=C(/C=C/c1ccc(O)cc1)C(CCCN1C(=O)c2ccccc2C1=O)C(=O)/C=C/c1ccc(O)cc1 [K3F31]
- mono-dissociated negatively charged form (H2L−) ([2]; pH 7): 65%
- mono-dissociated negatively charged form (H2L−) ([2]; pH 7.4): 86%
- IC50 [14]: 120 µM

Compound: O=C1CCC(N2C(=O)c3ccccc3C2=O)C(=O)N1 (centres unmarked) [thalidomide]
- patients with a decline in PSA of ≥40% (metastatic CRPC): 30–40%
